# Patent US7399775B2, “β-amyloid protein production/secretion inhibitor” (Daiichi Pharmaceutical Co., Ltd., priority 2001, dated 2008)
# pEC50: −log10 of the molar value. Where two headings read alike, the source gives them in different places.
# Experiments:
# [1] = tested on: β-amyloid protein (Aβ) production/secretion in E35 cells (H4 cells transfected with APP751); experiment: Cell-based assay for inhibition of production or secretion of β-amyloid protein (sandwich ELISA of Aβ in culture medium); set-up: species or system human; details: 24 h with compound, Aβ in medium by sandwich ELISA, read-out: Activity (EC50 class, inhibition of Aβ secreted in culture medium)
# Experimental: Cell-Based Assay for Screening of a Compound Which Inhibits Production or Secretion of β-Amyloid Protein
# E35 cells which were established by transfecting APP751 gene which is a wild type human β-amyloid protein precursor into human glioma cells (H4 cells), were used to analyze inhibitory activity of a compound against β-amyloid production. The amount of β protein (Aβ) secreted in a culture medium was measured by the sandwich enzyme-linked imunosorbent assay.
# E35 cells were seeded in Dulbecco's Modified Eagle's Medium containing 10% inactivated fetal bovine serum on 96-well plates and cultured in humidified air and 5% CO2 at 37° C. in a CO2 incubator. Twenty-four hours after seeding of the cells, a test compound dissolved in DMSO was added to the medium. The DMSO solution of the compound was prepared so as to give the final concentration of DMSO in the medium 0.05%. The cells were cultured for additional twenty-four hours, and then the cultured medium was collected. The medium collected was applied to a 96-well ELISA plate on which a monoclonal antibody 25-1, which recognized Aβ25-35, was immobilized, followed by the incubation at 4° C. for 16 to 20 hours. After washing with a phosphate buffer (pH 7.4), a biotinylated monoclonal antibody MA32-40, which recognizes Aβ1-8, was added to the plate, and the plate was incubated at 4° C. for 2 hours. Then alkaline phosphatase-conjugated streptavidin was added to the plate. Alkaline phosphatase activity was measured by a […] assay using BlouPhos (manufactured by KPL) as a substrate. An amount of Aβ in the medium was calculated using a calibration curve separately created. EC50 of the test compound was presented as the concentration that gives 50% inhibitory activity compared to the control cells which were not treated with the compound.
Compound,"pEC50 ([1]; Homo sapiens, 24 h)",pEC50 [1],melting point [°C]
"CCCC(O)C(c1cc(F)ccc1F)S(=O)(=O)c1ccc(Cl)cc1 (centres unmarked) [Example 10, 1-[(4-Chlorophenyl)sulfonyl]-1-(2,5-difluorophenyl)-2-pentanol]",6.30 to 7.30,,134.5 to 135
"CCCC=C(c1cc(F)ccc1F)S(=O)(=O)c1ccc(Cl)cc1 [Example 12, 2-[1-[(4-Chlorophenyl)sulfonyl]-1-penten-1-yl]-1,4-difluorobenzene]",5.30 to 6.30,,95.5 to 97
"CCC=CC(c1cc(F)ccc1F)S(=O)(=O)c1ccc(Cl)cc1 (centres unmarked) [Example 14, 2-[1-[(4-Chlorophenyl)sulfonyl]-2-penten-1-yl]-1,4-difluorobenzene]",5.30 to 6.30,,99 to 100
"O=S(=O)(c1ccc(Cl)cc1)C(CCCCO)c1cc(F)ccc1F (centres unmarked) [Example 29, 5-[(4-Chlorophenyl)sulfonyl]-5-(2,5-difluorophenyl)-1-pentanol]",6.30 to 7.30,,84 to 86
"O=S(=O)(c1ccc(Cl)cc1)C(CCCCCO)c1cc(F)ccc1F (centres unmarked) [Example 32, 6-[(4-Chlorophenyl)sulfonyl]-6-(2,5-difluorophenyl)-1-hexanol]",6.30 to 7.30,,98 to 99
"O=S(=O)(c1ccc(Cl)cc1)C(CCOCCO)c1cc(F)ccc1F (centres unmarked) [Example 35, 2-[3-[(4-Chlorophenyl)sulfonyl]-3-(2,5-difluorophenyl)propoxy]ethanol]",5.30 to 6.30,,41 to 46
"O=S(=O)(c1ccc(Cl)cc1)C(c1ccc(CN2CCOCC2)cn1)c1cc(F)ccc1F (centres unmarked) [Example 337, 4-[[6-[(4-Chlorophenylsulfonyl)-(2,5-difluorophenyl)methyl]pyridin-3-yl]methyl]morpholine]",,,120 to 121
"O=C(O)c1ccc(C(c2cc(F)ccc2F)S(=O)(=O)c2ccc(Cl)cc2)nc1 (centres unmarked) [Example 338, [6-[(4-Chlorophenylsulfonyl)-(2,5-difluorophenyl)methyl]pyridin-3-yl]carboxylic Acid]",,,> 230
"O=S(=O)(c1ccc(Cl)cc1)C(c1ccc[n+]([O-])c1)c1cc(F)ccc1F (centres unmarked) [Example 339, 3-[(4-Chlorophenylsulfonyl)-(2,5-difluorophenyl)methyl]pyridin-N-oxide]",,,183 to 184
"Fc1ccc(F)c(C(Sc2ccc(Cl)cc2)c2cc(Cl)ncc2Cl)c1 (centres unmarked) [Example 342, 2,5-Dichloro-4-[(4-chlorophenylthio)-(2,5-difluorophenyl)methyl]pyridine]",,,128 to 129
"[O-][S+](c1ccc(Cl)cc1)C(c1cc(F)ccc1F)c1ccncc1Cl (centres unmarked) [Example 344, 3-Chloro-4-[(4-chlorophenylsulfinyl)-(2,5-difluorophenyl)methyl]pyridine]",≥ 7.30,,
"O=S(=O)(c1ccc(Cl)cc1)C(c1cc(F)ccc1F)c1cc(NCC[N+]2([O-])CCOCC2)ncc1Cl (centres unmarked) [Example 349, 4-[2-[5-Chloro-4-[(4-chlorophenylsulfonyl)-(2,5-difluorophenyl)methyl]pyridin-2-yl]aminoethyl]morpholine N-Oxide]",≥ 7.30,,
"CN(C)S(=O)(=O)NCc1ccc(C(c2cc(F)ccc2F)S(=O)(=O)c2ccc(Cl)cc2)nc1 (centres unmarked) [Example 356, N-[[6-[(4-Chlorophenylsulfonyl)(2,5-difluorophenyl)methyl]pyridin-3-yl]methyl]-N′,N′-dimethylsulfamide]",,,177 to 178
"CCOC(=O)C(=O)NCc1ccc(C(c2cc(F)ccc2F)S(=O)(=O)c2ccc(Cl)cc2)nc1 (centres unmarked) [Example 357, Ethyl 2-[[6-[(4-chlorophenylsulfonyl)(2,5-difluorophenyl)methyl]pyridin-3-yl]methylamino]-2-oxoacetate]",,,193 to 194
"Cc1ccc(S(=O)(=O)NCC(=O)NCc2ccc(C(c3cc(F)ccc3F)S(=O)(=O)c3ccc(Cl)cc3)nc2)cc1 (centres unmarked) [Example 358, N-[[6-[(4-Chlorophenylsulfonyl)(2,5-difluorophenyl)methyl]pyridin-3-yl]methyl]-2-(4-methylphenylsulfonylamino)acetamide]",,,217 to 218
"CN(C)CC(=O)NCc1ccc(C(c2cc(F)ccc2F)S(=O)(=O)c2ccc(Cl)cc2)nc1 (centres unmarked) [Example 359, N-[[6-[(4-Chlorophenylsulfonyl)(2,5-difluorophenyl)methyl]pyridin-3-yl]methyl]-2-dimethylaminoacetamide]",,,177 to 179
"COC(=O)OCc1ccc(C(c2cc(F)ccc2F)S(=O)(=O)c2ccc(Cl)cc2)nc1 (centres unmarked) [Example 372, [6-(4-Chlorophenylsulfonyl)(2,5-difluorophenyl)methylpyridin-3-yl]methyl Methyl Carbonate]",6.30 to 7.30,,

# Next, values leading:
"pEC50 ([1]; Homo sapiens, 24 h)",pEC50 [1],melting point [°C],Compound
5.30 to 6.30,,,"CCCCC(c1cc(F)ccc1F)[S+]([O-])c1ccc(Cl)cc1 (single isomer, unassigned) [Example 2 (Isomer 2-B), 2-[1-[(4-Chlorophenyl)sulfinyl]pentyl]-1,4-difluorobenzene]"
6.30 to 7.30,,,"CSCCCC(C)C(c1cc(F)ccc1F)S(=O)(=O)c1ccc(Cl)cc1 (single isomer, unassigned) [Example 43 (Isomer 43-A), 2-[1-[(4-Chlorophenyl)sulfonyl]-2-methyl-5-(methylthio)pentyl]-1,4-difluorobenzene]"
,6.30 to 7.30,,"CSCCCC(C)C(c1cc(F)ccc1F)S(=O)(=O)c1ccc(Cl)cc1 (single isomer, unassigned) [Example 43 (Isomer 43-B), 2-[1-[(4-Chlorophenyl)sulfonyl]-2-methyl-5-(methylthio)pentyl]-1,4-difluorobenzene]"
6.30 to 7.30,,,"CCCCC(c1cc(F)ccc1F)S(=O)(=O)c1ccc(Cl)cc1 (centres unmarked) [Example 3, 2-[1-[(4-Chlorophenyl)sulfonyl]pentyl]-1,4-difluorobenzene]"
5.30 to 6.30,,,"CC(CCCCO)(c1cc(F)ccc1F)S(=O)(=O)c1ccc(Cl)cc1 (centres unmarked) [Example 17, 5-(4-Chlorophenylsulfonyl)-5-(2,5-difluorophenyl)-1-hexanol]"
6.30 to 7.30,,,"CS(=O)(=O)CCCCC(c1cc(F)ccc1F)S(=O)(=O)c1ccc(Cl)cc1 (centres unmarked) [Example 27 (Compound A), 2-[1-[(4-Chlorophenyl)sulfonyl]-5-(methylsulfonyl)pentyl]-1,4-difluorobenzene]"
≥ 7.30,,137 to 139,"O=S(=O)(c1ccc(Cl)cc1)C1(c2cc(F)ccc2F)CCCCC1 [Example 33, 2-[1-[(4-Chlorophenyl)sulfonyl]cyclohexyl]-1,4-difluorobenzene]"
6.30 to 7.30,,107 to 109,"O=S(=O)(c1ccc(Cl)cc1)C(c1cc(F)ccc1F)C1CCCCC1 (centres unmarked) [Example 36, 2-[[(4-Chlorophenyl)sulfonyl](cylcohexyl)methyl]-1,4-difluorobenzene]"
,,113 to 114,"O=S(=O)(c1ccc(Cl)cc1)C(c1ccc(CN2CCCCC2)cn1)c1cc(F)ccc1F (centres unmarked) [Example 336, 2-[(4-Chlorophenylsulfonyl)-(2,5-difluorophenyl)methyl]-5-(piperidin-1-ylmethyl)pyridine]"
,,211 to 212,"O=S(=O)(c1ccc(Cl)cc1)C(c1cc[n+]([O-])cc1)c1cc(F)ccc1F (centres unmarked) [Example 340, 4-[(4-Chlorophenylsulfonyl)-(2,5-difluorophenyl)methyl]pyridin-N-oxide]"
,,70 to 72,"Fc1ccc(F)c(C(Sc2ccc(Cl)cc2)c2ccncc2Cl)c1 (centres unmarked) [Example 341, 3-Chloro-4-[(4-chlorophenylthio)-(2,5-difluorophenyl)methyl]pyridine]"
≥ 7.30,,,"O=S(=O)(c1ccc(Cl)cc1)C(c1cc(F)ccc1F)c1cc(Cl)ncc1Cl (centres unmarked) [Example 345, 2,5-Dichloro-4-[(4-chlorophenylsulfonyl)-(2,5-difluorophenyl)methyl]pyridine 0.5 hydrate]"
6.30 to 7.30,,,"CS(=O)(=O)NCc1ccc(C(c2cc(F)ccc2F)S(=O)(=O)c2ccc(Cl)cc2)nc1 (centres unmarked) [Example 370, N-[[6-(4-Chlorophenylsulfonyl)(2,5-difluorophenyl)methylpyridin-3-yl]methyl]methanesulfonamide]"
≥ 7.30,,,"CNCCN(C)c1cc(C(c2cc(F)ccc2F)S(=O)(=O)c2ccc(Cl)cc2)c(Cl)cn1 (centres unmarked) [Example 397, 5-Chloro-4-[(4-chlorophenylsulfonyl)-(2,5-difluorophenyl)methyl]-2-[N-methyl-N-[2-(methylamino)ethyl]amino]pyridine]"
≥ 7.30,,,O=S(=O)(c1ccc(Cl)cc1)C(c1cc(F)ccc1F)c1cc(N2CCC[C@H]2CO)ncc1Cl (some centres unmarked) [Example 399]
≥ 7.30,,,"NCC1CN(c2cc(C(c3cc(F)ccc3F)S(=O)(=O)c3ccc(Cl)cc3)c(Cl)cn2)CCO1 (centres unmarked) [Example 402, 2-Aminomethyl-4-[5-chloro-4-[(4-chlorophenylsulfonyl)-(2,5-difluorophenyl)methyl]pyridin-2-yl]morpholine]"
